Measurements from PubChem BioAssay (NCI).
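1) Cells in 96-well plates. 2) Compound, 48 h, 5 concentrations. 3) Linear interpolation between surrounding doses. 4) Unreached endpoint = highest concentration. GI50: concentration for 50% inhibition of growth. TGI is the concentration that stops growth completely.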

Legend:
Assay in all cases: DTP human tumour cell line panel, 48 h
[1] = tested on: 786-0 renal
[2] = tested on: A498 renal
[3] = tested on: A549 NSCLC
[4] = tested on: ACHN renal
[5] = tested on: BT-549 breast
[6] = tested on: CAKI-1 renal
[7] = tested on: CCRF-CEM leukemia
[8] = tested on: COLO 205 colon
[9] = tested on: DU-145 prostate
[10] = tested on: EKVX NSCLC
[11] = tested on: HCC-2998 colon
[12] = tested on: HCT-116 colon
[13] = tested on: HCT-15 colon
[14] = tested on: HL-60(TB) leukemia
[15] = tested on: HOP-62 NSCLC
[16] = tested on: HOP-92 NSCLC
[17] = tested on: HS 578T breast
[18] = tested on: HT29 colon
[19] = tested on: IGROV1 ovarian
[20] = tested on: K-562 leukemia
[21] = tested on: KM12 colon
[22] = tested on: LOX IMVI melanoma
[23] = tested on: M14 melanoma
[24] = tested on: MALME-3M melanoma
[25] = tested on: MCF7 breast
[26] = tested on: MDA-MB-231 breast
[27] = tested on: MDA-MB-435
[28] = tested on: MDA-MB-468 breast
[29] = tested on: MOLT-4 leukemia
[30] = tested on: NCI-H226 lung
[31] = tested on: NCI-H23 lung
[32] = tested on: NCI-H460 lung
[33] = tested on: NCI-H522 lung
[34] = tested on: OVCAR-3 ovarian
[35] = tested on: OVCAR-4 ovarian
[36] = tested on: OVCAR-5 ovarian
[37] = tested on: OVCAR-8 ovarian
[38] = tested on: PC-3 prostate
[39] = tested on: RPMI-8226 leukemia
[40] = tested on: RXF 393 renal
[41] = tested on: SF-268 CNS
[42] = tested on: SF-295 CNS
[43] = tested on: SF-539 CNS
[44] = tested on: SK-MEL-2 melanoma
[45] = tested on: SK-MEL-28 melanoma
[46] = tested on: SK-MEL-5 melanoma
[47] = tested on: SK-OV-3 ovarian
[48] = tested on: SN12C renal
[49] = tested on: SNB-19 CNS
[50] = tested on: SR leukemia
[51] = tested on: SW-620 colon
[52] = tested on: T-47D breast
[53] = tested on: TK-10 renal
[54] = tested on: U251 CNS
[55] = tested on: UACC-257 melanoma
[56] = tested on: UACC-62 melanoma
[57] = tested on: UO-31 renal

Compound: CN(C)c1nc(NCCNS(=O)(=O)c2ccc(C3=Nc4c(N)nc(N)nc4NC(c4ccc(C(F)(F)F)cc4)C3)cc2)nc(N2CCOCC2)n1 (stereo not drawn)
- GI50 [1]: 20.8 µM
- TGI [1]: > 100 µM
- GI50 [2]: 24.1 µM
- TGI [2]: 82.9 µM
- GI50 [3]: 51.3 µM
- TGI [3]: > 100 µM
- GI50 [4]: 64.4 µM
- TGI [4]: > 100 µM
- GI50 [5]: 13.8 µM
- TGI [5]: 31.8 µM
- GI50 [6]: 25.9 µM
- TGI [6]: > 100 µM
- GI50 [7]: 25.9 µM
- TGI [7]: > 100 µM
- GI50 [8]: 16.5 µM
- TGI [8]: 35.5 µM
- GI50 [9]: 72 µM
- TGI [9]: > 100 µM
- GI50 [10]: 47.2 µM
- TGI [10]: > 100 µM
- GI50 [11]: 20.2 µM
- TGI [11]: 46.4 µM
- GI50 [12]: 41.9 µM
- TGI [12]: > 100 µM
- GI50 [13]: 30.9 µM
- TGI [13]: > 100 µM
- GI50 [14]: 27.4 µM
- TGI [14]: 83.9 µM
- GI50 [15]: 50.7 µM
- TGI [15]: > 100 µM
- GI50 [16]: 7.48 µM
- TGI [16]: 48.3 µM
- GI50 [17]: 19.2 µM
- TGI [17]: > 100 µM
- GI50 [18]: 19.8 µM
- TGI [18]: 48.2 µM
- GI50 [19]: 27 µM
- TGI [19]: > 100 µM
- GI50 [20]: 29.1 µM
- TGI [20]: > 100 µM
- GI50 [21]: 37 µM
- TGI [21]: > 100 µM
- GI50 [22]: 17.1 µM
- TGI [22]: 33.2 µM
- GI50 [23]: 22 µM
- TGI [23]: 63.8 µM
- GI50 [24]: 19.9 µM
- TGI [24]: 53.3 µM
- GI50 [25]: 18.1 µM
- TGI [25]: 81.3 µM
- GI50 [26]: 16.9 µM
- TGI [26]: 44.4 µM
- GI50 [27]: 34.2 µM
- TGI [27]: > 100 µM
- GI50 [28]: 13.7 µM
- TGI [28]: 30.9 µM
- GI50 [29]: 17.3 µM
- TGI [29]: > 100 µM
- GI50 [30]: 17.6 µM
- TGI [30]: > 100 µM
- GI50 [31]: 37.6 µM
- TGI [31]: > 100 µM
- GI50 [32]: 36.5 µM
- TGI [32]: > 100 µM
- GI50 [33]: 51.7 µM
- TGI [33]: > 100 µM
- GI50 [34]: 53.9 µM
- TGI [34]: > 100 µM
- GI50 [35]: 37 µM
- TGI [35]: > 100 µM
- GI50 [36]: 27 µM
- TGI [36]: 95.9 µM
- GI50 [37]: 59.5 µM
- TGI [37]: > 100 µM
- GI50 [38]: 24.6 µM
- TGI [38]: > 100 µM
- GI50 [39]: 11.2 µM
- TGI [39]: > 100 µM
- GI50 [40]: 10.3 µM
- TGI [40]: 45.5 µM
- GI50 [41]: 19.9 µM
- TGI [41]: > 100 µM
- GI50 [42]: 21.1 µM
- TGI [42]: 83.7 µM
- GI50 [43]: 22.5 µM
- TGI [43]: 87.9 µM
- GI50 [44]: 15.8 µM
- TGI [44]: 30.2 µM
- GI50 [45]: 34.1 µM
- TGI [45]: > 100 µM
- GI50 [46]: 15.9 µM
- TGI [46]: 30.1 µM
- GI50 [47]: 69.7 µM
- TGI [47]: > 100 µM
- GI50 [48]: 35.7 µM
- TGI [48]: > 100 µM
- GI50 [49]: 30 µM
- TGI [49]: > 100 µM
- GI50 [50]: 18.1 µM
- TGI [50]: > 100 µM
- GI50 [51]: 46.9 µM
- TGI [51]: > 100 µM
- GI50 [52]: 21.3 µM
- TGI [52]: > 100 µM
- GI50 [53]: 54.4 µM
- TGI [53]: > 100 µM
- GI50 [54]: 24.2 µM
- TGI [54]: > 100 µM
- GI50 [55]: 20.4 µM
- TGI [55]: 54.9 µM
- GI50 [56]: 16.4 µM
- TGI [56]: 36.4 µM
- GI50 [57]: > 100 µM
- TGI [57]: > 100 µM

Compound: C=CC(=O)N1CCN(c2ccc3nc4c(nc3c2C(F)(F)F)C(=O)c2ncccc2C4=O)CC1
- GI50 [1]: 9.96 µM
- TGI [1]: 66.6 µM
- GI50 [2]: 15.6 µM
- TGI [2]: 29.8 µM
- GI50 [3]: 3.05 µM
- TGI [3]: 14.7 µM
- GI50 [4]: 6.41 µM
- TGI [4]: 20.5 µM
- GI50 [5]: 7.17 µM
- TGI [5]: 20.3 µM
- GI50 [6]: 9.74 µM
- TGI [6]: 38 µM
- GI50 [7]: 2.99 µM
- TGI [7]: > 98 µM
- GI50 [8]: 2.42 µM
- TGI [8]: 7.83 µM
- GI50 [9]: 6.16 µM
- TGI [9]: 20 µM
- GI50 [10]: 8.45 µM
- TGI [10]: 21.9 µM
- GI50 [11]: 5.44 µM
- TGI [11]: 18.1 µM
- GI50 [12]: 2.67 µM
- TGI [12]: 7.4 µM
- GI50 [13]: 2.39 µM
- TGI [13]: 11.9 µM
- GI50 [14]: 3.34 µM
- TGI [14]: > 98 µM
- GI50 [15]: 10.9 µM
- TGI [15]: 39.8 µM
- GI50 [16]: 19 µM
- TGI [16]: 57.1 µM
- GI50 [17]: 16.9 µM
- TGI [17]: 56.4 µM
- GI50 [18]: 3.27 µM
- TGI [18]: 11 µM
- GI50 [19]: 2.9 µM
- TGI [19]: 12.3 µM
- GI50 [20]: 4.4 µM
- TGI [20]: > 98 µM
- GI50 [21]: 4.61 µM
- TGI [21]: 55.3 µM
- GI50 [22]: 2.09 µM
- TGI [22]: 6.37 µM
- GI50 [23]: 2.53 µM
- TGI [23]: 12.3 µM
- GI50 [24]: 1.3 µM
- TGI [24]: 2.67 µM
- GI50 [25]: 1.77 µM
- TGI [25]: 5.48 µM
- GI50 [26]: 2.95 µM
- TGI [26]: 10.7 µM
- GI50 [27]: 1.68 µM
- TGI [27]: 3.21 µM
- GI50 [28]: 1.58 µM
- TGI [28]: 3.67 µM
- GI50 [29]: 3.28 µM
- TGI [29]: 21.2 µM
- GI50 [30]: 10.9 µM
- TGI [30]: 27.7 µM
- GI50 [31]: 1.97 µM
- TGI [31]: 9.88 µM
- GI50 [32]: 1.25 µM
- TGI [32]: 3.75 µM
- GI50 [33]: 9.95 µM
- TGI [33]: 23.8 µM
- GI50 [34]: 2.24 µM
- TGI [34]: 6.35 µM
- GI50 [35]: 2.41 µM
- TGI [35]: 6.7 µM
- GI50 [36]: 11.8 µM
- TGI [36]: 25.2 µM
- GI50 [37]: 2.99 µM
- TGI [37]: 11.6 µM
- GI50 [38]: 2.52 µM
- TGI [38]: > 98 µM
- GI50 [39]: 3.1 µM
- TGI [39]: 40.7 µM
- GI50 [40]: 3.59 µM
- TGI [40]: 15.8 µM
- GI50 [41]: 7.76 µM
- TGI [41]: 63.6 µM
- GI50 [42]: 4.1 µM
- TGI [42]: 16.9 µM
- GI50 [43]: 3.39 µM
- TGI [43]: 11.7 µM
- GI50 [44]: 3.01 µM
- TGI [44]: 13.2 µM
- GI50 [45]: 10.8 µM
- TGI [45]: 28.2 µM
- GI50 [46]: 1.39 µM
- TGI [46]: 2.67 µM
- GI50 [47]: 19.4 µM
- TGI [47]: 79.6 µM
- GI50 [48]: 2.27 µM
- TGI [48]: 8.31 µM
- GI50 [49]: 5.4 µM
- TGI [49]: 20.1 µM
- GI50 [50]: 3.18 µM
- TGI [50]: > 98 µM
- GI50 [51]: 2.88 µM
- TGI [51]: 11 µM
- GI50 [52]: 2.66 µM
- TGI [52]: 9.9 µM
- GI50 [53]: 18.6 µM
- TGI [53]: 97.6 µM
- GI50 [54]: 3.11 µM
- TGI [54]: 13.3 µM
- GI50 [55]: 1.72 µM
- TGI [55]: 4.16 µM
- GI50 [56]: 2.05 µM
- TGI [56]: 5.31 µM
- GI50 [57]: 11 µM
- TGI [57]: 25.7 µM
